Measured values as given in patent publication US8735412B2, “Sulfoximine-substituted anilinopyrimidine derivatives as CDK inhibitors, the production thereof, and use as medicine” (Bayer Intellectual Property GmbH, priority 2008, dated 2014).
Read-outs that look alike come from different tables or passages of the source.

Tests used:
[1] = tested on: HeLa-MaTu human cervical carcinoma xenograft; experiment: HeLa-MaTu cervical tumor xenograft model on NMRI nude mice; format: in vivo; settings: oral; for tolerability of the cyclic treatment regimen: 10 mg/kg; for response vs control in vivo at 10 mg/kg: Mus musculus, read-out: treatment/control ratio T/C (tumor weight)
Method: HeLa-MaTu (EPO-GmbH, Berlin) human cervical carcinoma cells, which were grown in cell culture, were implanted subcutaneously in the flank of female NMRI nude mice. […] The study was terminated as soon as the tumors in one of the groups reached a size of approx. 150 mm^2.
(§1) The growth-inhibiting effect of the compounds was tested in the HeLa-MaTu cervical tumor model as xenograft on NMRI nude mice. […] Treatment of the established tumors was begun on day 4 after inoculation of the tumors.
as §1, §1
(§2) The study was designed for determining the initial response of a human cervical carcinoma xenograft model to treatments with the 5-Br comparative substance V12. The growth-inhibiting effect of the compounds was tested in the HeLa-MaTu cervical tumor model as xenograft on NMRI nude mice. V12 was dissolved completely in the solubilizer 40% polyethylene glycol 400 (PEG 400)/60% water to a final concentration of 0.7 mg/ml (group 2), 0.85 mg/ml (group 3), or 1.0 mg/ml (group 4). Treatment of the established tumors was begun on day 4 after inoculation of the tumors.
HeLa-MaTu (EPO-GmbH, Berlin) human cervical carcinoma cells, which were grown in cell culture, were implanted subcutaneously in the flank of female NMRI nude mice. […] The study was terminated as soon as the tumors in one of the groups reached a size of approx. 160 mm^2.
(§3) The growth-inhibiting effect of the compounds was tested in the HeLa-MaTu cervical tumor model as xenograft on NMRI nude mice. […] Treatment of the established tumors was begun on day 5 after inoculation of the tumors.
as §3, §3
The following test groups were used: • Group 1: Control, treatment with solubilizer (40% PEG 400/60% water) • Group 2: Compound according to WO 2005/037800 prepared according to preparation V14 disclosed above • (6 mg/kg, oral, 2x daily on day 5, 6, 12, 13, 19, 20) • Group 3: Compound according to WO 2005/037800 prepared according to preparation V14 disclosed above • (8 mg/kg, oral, 2× daily on day 5, 6, 12, 13, 19, 20) • Group 4: Compound according to WO 2005/037800 prepared according to preparation V14 disclosed above • (10 mg/kg, oral, 2× daily on day 5, 6, 12, 13, 19, 20)
as §2, with “substance V14.” for “substance V12.”, “mice. V14” for “mice. V12”, “of 0.6” for “of 0.7”, “2), 0.8” for “2), 0.85”, “day 5” for “day 4”

[2] = target: T1, CDK2/CycE (Homo sapiens, UniProt P24941); experiment: CDK2/CycE kinase assay (Assay 2); format: biochemical; settings: 0.5 μM ATP, histon IIIS substrate; read-out: CDK2/CycE (Assay 2) Concentration for 50% inhibition of enzyme activity, IC50
T1 construct: purchased ProQinase GmbH, Freiburg; host or cells: baculovirus-infected insect cells (Sf9)
Method: 10.2 Assay 2: CDK2/CycE Kinase Assay
Recombinant CDK2 and CycE-GST fusion proteins, purified from baculovirus-infected insect cells (Sf9), were purchased from ProQinase GmbH, Freiburg. Histon IIIS, used as kinase substrate, was purchased from the company Sigma. CDK2/CycE (50 ng/measuring point) was incubated for 10 min at 22° C. in the presence of various concentrations of test substances (0 μM, and within the range 0.01-100 μM) in assay buffer [50 mM Tris/HCl pH8.0, 10 mM MgCl2, 0.1 mM Na ortho-vanadate, 1.0 mM dithiothreitol, 0.5 μM adenosine triphosphate (ATP), 10 μg/measuring point histon IIIS, 0.2 μCi/measuring point ^33P-gamma ATP, 0.05% NP40, 1.25% dimethylsulfoxide]. The reaction was stopped by adding EDTA solution (250 mM, pH8.0, 15 μl/measuring point).
(§4) From each reaction mixture, 15 μl was applied to P30 filter strips (from Wallac), and unincorporated ^33P-ATP was removed by washing the filter strips three times, for 10 min each time, in 0.5% phosphoric acid. After drying the filter strips for 1 hour at 70° C., the filter strips were covered with scintillator strips (MeltiLex™ A, from Wallac) and stoved for 1 hour at 90° C. The amount of incorporated ^33P (substrate phosphorylation) was determined by scintillation measurement in a gamma-radiation measuring instrument (Wallac). The measured data were standardized to 0% inhibition (enzyme reaction without inhibitor) and 100% inhibition (all assay components except enzyme). The IC50 values were determined by means of a 4-parameter fit using the company's own software.

[3] = target: T2, VEGF receptor tyrosine kinase-2 (Homo sapiens, UniProt P35968); experiment: VEGF receptor-2 kinase assay (Assay 3); format: biochemical; settings: 8 μM ATP, poly-(Glu4Tyr) substrate; read-out: VEGF-R2 (Assay 3) Concentration for 50% inhibition of enzyme activity, IC50
T2 construct: GST; made in house; host or cells: baculovirus-infected insect cells (Sf9)
Method: 10.3 Assay 3: VEGF Receptor-2 Kinase Assay
Recombinant VEGF receptor tyrosine kinase-2 was purified as GST fusion protein from baculovirus-infected insect cells (Sf9). Poly-(Glu4Tyr), used as kinase substrate, was purchased from the company Sigma.
VEGF receptor tyrosine kinase (90 ng/measuring point) was incubated for 10 min at 22° C. in the presence of various concentrations of test substances (0 μM, and within the range 0.001-30 μM) in 30 μl assay buffer [40 mM Tris/HCl pH5.5, 10 mM MgCl2, 1 mM MnCl2, 3 μM Na ortho-vanadate, 1.0 mM dithiothreitol, 8 μM adenosine triphosphate (ATP), 0.96 μg/measuring point poly-(Glu4Tyr), 0.2 μCi/measuring point ^33P-gamma ATP, 1.4% dimethylsulfoxide]. The reaction was stopped by adding EDTA solution (250 mM, pH8.0, 15 μl/measuring point).
as §4

T2 sequence (P35968 20-1356): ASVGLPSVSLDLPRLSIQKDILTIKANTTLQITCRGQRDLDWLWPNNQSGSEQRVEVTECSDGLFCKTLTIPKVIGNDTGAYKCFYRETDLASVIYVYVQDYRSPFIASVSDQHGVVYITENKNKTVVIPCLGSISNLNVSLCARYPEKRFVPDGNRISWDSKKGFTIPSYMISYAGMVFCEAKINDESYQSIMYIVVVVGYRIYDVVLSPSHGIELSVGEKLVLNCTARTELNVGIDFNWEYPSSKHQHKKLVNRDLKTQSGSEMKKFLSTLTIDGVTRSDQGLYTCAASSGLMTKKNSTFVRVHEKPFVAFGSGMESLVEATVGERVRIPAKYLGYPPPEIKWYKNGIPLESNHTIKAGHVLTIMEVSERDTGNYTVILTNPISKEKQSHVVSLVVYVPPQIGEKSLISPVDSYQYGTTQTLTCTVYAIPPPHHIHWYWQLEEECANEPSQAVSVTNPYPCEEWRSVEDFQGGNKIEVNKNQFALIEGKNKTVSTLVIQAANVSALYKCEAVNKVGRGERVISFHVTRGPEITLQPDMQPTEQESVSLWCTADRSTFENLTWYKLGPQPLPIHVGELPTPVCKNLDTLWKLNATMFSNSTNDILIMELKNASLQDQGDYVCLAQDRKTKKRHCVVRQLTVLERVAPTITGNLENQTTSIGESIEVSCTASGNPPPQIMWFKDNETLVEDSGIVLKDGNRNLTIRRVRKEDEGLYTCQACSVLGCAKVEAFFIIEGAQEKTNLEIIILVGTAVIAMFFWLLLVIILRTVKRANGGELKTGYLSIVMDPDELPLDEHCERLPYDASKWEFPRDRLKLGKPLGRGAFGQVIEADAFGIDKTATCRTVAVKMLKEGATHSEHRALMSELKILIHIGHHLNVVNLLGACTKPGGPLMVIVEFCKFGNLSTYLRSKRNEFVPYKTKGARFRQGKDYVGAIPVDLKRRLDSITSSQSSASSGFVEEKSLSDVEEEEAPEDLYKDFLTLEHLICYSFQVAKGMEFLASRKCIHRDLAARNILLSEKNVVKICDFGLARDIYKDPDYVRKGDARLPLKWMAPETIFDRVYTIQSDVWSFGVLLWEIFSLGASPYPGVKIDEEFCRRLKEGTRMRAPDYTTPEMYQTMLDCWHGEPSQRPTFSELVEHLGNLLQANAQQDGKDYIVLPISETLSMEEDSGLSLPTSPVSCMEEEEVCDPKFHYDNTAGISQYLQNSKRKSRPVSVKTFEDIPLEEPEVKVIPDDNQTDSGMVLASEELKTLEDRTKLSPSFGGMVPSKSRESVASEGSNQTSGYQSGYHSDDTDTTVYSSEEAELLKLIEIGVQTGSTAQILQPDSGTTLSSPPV

## C[C@@H](O)[C@@H](C)Oc1nc(Nc2ccc(S(=N)(=O)C3CC3)cc2)ncc1Br (single isomer, unassigned) [Example V14]
[1]; 10 mg/kg (group 4), 2x daily on day 5, 6, 12, 13, 19, 20, day 20
  reduction of tumor weight at the end of the study to % of the control group: 44%
[1]; 2x daily on day 5, 6, 12, 13, 19, 20
  tolerability of the cyclic treatment regimen: well-tolerated
[1]; 6, 8, 10 mg/kg, 2x daily on day 5, 6, 12, 13, 19, 20
  effect on tumor growth (in words): dose-dependent inhibition of tumor growth
[1]; 480 h, 10 mg/kg (group 4), 2x daily on day 5, 6, 12, 13, 19, 20, day 20
  response vs control in vivo at 10 mg/kg: 44%
[2]
  IC50: 7 nM
[3]
  IC50: 91 nM

## CCS(=N)(=O)c1ccc(Nc2ncc(Br)c(N[C@H](C)[C@@H](C)O)n2)cc1 (some centres unmarked) [Example V12]
[1]; 2x daily on day 4, 5, 11, 12, 17, 18, 23, 24
  tolerability of the cyclic treatment regimen: well-tolerated
[1]; 7, 8.5, 10 mg/kg, 2x daily on day 4, 5, 11, 12, 17, 18, 23, 24
  effect on tumor growth (in words): dose-dependent weak inhibition of tumor growth
[1]; 672 h, 10 mg/kg (group 4), 2x daily on day 4, 5, 11, 12, 17, 18, 23, 24, day 28
  response vs control in vivo at 10 mg/kg: 51%
[2]
  IC50: 3 nM
[3]
  IC50: 32 nM
